Results from ChEMBL document CHEMBL5724914, “Linking interpersonal differences in gut microbiota composition and drug biotransformation activity” (2024).

How the values were obtained:
[1] = (§1) The drug is tested on Z-007 corresponding to rat gut metagenome with ENA study accession number: PRJEB37062 and ENA sample accession number: ERS12561807 for biotransformation under anaerobic condition. The drug concentrations were measured over 9 timepoints collected between 0 and 24 hours of incubation by liquid-chromatography-coupled mass spectrometry (LC–MS); settings: 2 µM
[2] = human gut metagenome, 24 h, 2 µM
[3] = human gut metagenome, 24 h, 2 µM; remark: listed apart in the source
[4] = as §1, with “on WLS-069” for “on Z-007”, “to human” for “to rat”, “number: ERS12561748” for “number: ERS12561807”; settings: 2 µM
[5] = as §1, with “on WLS-077” for “on Z-007”, “to human” for “to rat”, “number: ERS12561750” for “number: ERS12561807”; settings: 2 µM
[6] = human gut metagenome, 24 h, 2 µM; remark: listed apart in the source
[7] = as §1, with “on Z-016” for “on Z-007”, “to mouse” for “to rat”, “number: ERS12561815” for “number: ERS12561807”; settings: 2 µM
[8] = human gut metagenome, 24 h, 2 µM; remark: listed apart in the source
[9] = human gut metagenome, 24 h, 2 µM; remark: listed apart in the source
[10] = human gut metagenome, 24 h, 2 µM; remark: listed apart in the source
[11] = human gut metagenome, 24 h, 2 µM; remark: listed apart in the source
[12] = human gut metagenome, 24 h, 2 µM; remark: listed apart in the source
[13] = as §1, with “Z-021” for “Z-007”, “to” for “to rat gut”, “ERS12561820” for “ERS12561807”; settings: 2 µM
[14] = human gut metagenome, 24 h, 2 µM; remark: listed apart in the source
[15] = as §1, with “Z-023” for “Z-007”, “to” for “to rat gut”, “ERS12561822” for “ERS12561807”; settings: 2 µM
[16] = as §1, with “on Z-030” for “on Z-007”, “to mouse” for “to rat”, “number: ERS12561829” for “number: ERS12561807”; settings: 2 µM
[17] = human gut metagenome, 24 h, 2 µM; remark: listed apart in the source
[18] = as §1, with “on Z-001” for “on Z-007”, “to mouse” for “to rat”, “number: ERS12561801” for “number: ERS12561807”; settings: 2 µM
[19] = as §1, with “on WLS-007” for “on Z-007”, “to human” for “to rat”, “number: ERS12561742” for “number: ERS12561807”; settings: 2 µM
[20] = human gut metagenome, 24 h, 2 µM; remark: listed apart in the source
Also: call rule not given here.

Bacterial Biotransformation [1]	Bacterial Biotransformation [2]	Bacterial Biotransformation [3]	Bacterial Biotransformation [4]	Bacterial Biotransformation [5]	Bacterial Biotransformation [6]	Bacterial Biotransformation [7]	Bacterial Biotransformation [8]	Bacterial Biotransformation [9]	Bacterial Biotransformation [10]	Bacterial Biotransformation [11]	Bacterial Biotransformation [12]	Bacterial Biotransformation [13]	Bacterial Biotransformation [14]	Bacterial Biotransformation [15]	Bacterial Biotransformation [16]	Bacterial Biotransformation [17]	Bacterial Biotransformation [18]	Bacterial Biotransformation [19]	Bacterial Biotransformation [20]	SMILES
Compound NOT metabolized	Compound metabolized	Compound NOT metabolized	Compound metabolized	Compound metabolized	Compound metabolized	Compound NOT metabolized	Compound metabolized	Compound metabolized	Compound metabolized	Compound metabolized	Compound metabolized	Compound NOT metabolized	Compound metabolized	Compound metabolized	Compound NOT metabolized	Compound metabolized	Compound NOT metabolized	Compound metabolized	Compound metabolized	O=C1C(CC[S+]([O-])c2ccccc2)C(=O)N(c2ccccc2)N1c1ccccc1 (stereo not given) [SULFINPYRAZONE]
Compound NOT metabolized	Compound NOT metabolized	Compound NOT metabolized	Compound NOT metabolized	Compound NOT metabolized	Compound NOT metabolized	Compound NOT metabolized	Compound NOT metabolized	Compound metabolized	Compound NOT metabolized	Compound NOT metabolized	Compound NOT metabolized	Compound metabolized	Compound metabolized	Compound metabolized	Compound NOT metabolized	Compound NOT metabolized	Compound NOT metabolized	Compound NOT metabolized	Compound NOT metabolized	CCOc1ccccc1OCCN[C@H](C)Cc1ccc(OC)c(S(N)(=O)=O)c1.Cl [TAMSULOSIN HYDROCHLORIDE]
Compound NOT metabolized	Compound NOT metabolized	Compound NOT metabolized	Compound NOT metabolized	Compound NOT metabolized	Compound NOT metabolized	Compound NOT metabolized	Compound NOT metabolized	Compound NOT metabolized	Compound NOT metabolized	Compound NOT metabolized	Compound NOT metabolized	Compound NOT metabolized	Compound metabolized	Compound NOT metabolized	Compound NOT metabolized	Compound NOT metabolized	Compound NOT metabolized	Compound NOT metabolized	Compound NOT metabolized	c1ccc2[nH]c(-c3cscn3)nc2c1 [THIABENDAZOLE]
Compound NOT metabolized	Compound NOT metabolized	Compound NOT metabolized	Compound NOT metabolized	Compound NOT metabolized	Compound NOT metabolized	Compound NOT metabolized	Compound NOT metabolized	Compound metabolized	Compound NOT metabolized	Compound NOT metabolized	Compound NOT metabolized	Compound NOT metabolized	Compound metabolized	Compound NOT metabolized	Compound NOT metabolized	Compound NOT metabolized	Compound metabolized	Compound NOT metabolized	Compound NOT metabolized	CCN(CC)CCNC(=O)c1cc(S(C)(=O)=O)ccc1OC [TIAPRIDE]
Compound NOT metabolized	Compound NOT metabolized	Compound NOT metabolized	Compound NOT metabolized	Compound NOT metabolized	Compound NOT metabolized	Compound NOT metabolized	Compound NOT metabolized	Compound NOT metabolized	Compound NOT metabolized	Compound NOT metabolized	Compound NOT metabolized	Compound NOT metabolized	Compound NOT metabolized	Compound NOT metabolized	Compound NOT metabolized	Compound NOT metabolized	Compound NOT metabolized	Compound NOT metabolized	Compound NOT metabolized	CC(C)(C)NC[C@H](O)COc1nsnc1N1CCOCC1.O=C(O)/C=C\C(=O)O [TIMOLOL MALEATE]
Compound NOT metabolized	Compound NOT metabolized	Compound NOT metabolized	Compound NOT metabolized	Compound NOT metabolized	Compound NOT metabolized	Compound NOT metabolized	Compound NOT metabolized	Compound NOT metabolized	Compound NOT metabolized	Compound NOT metabolized	Compound NOT metabolized	Compound NOT metabolized	Compound NOT metabolized	Compound NOT metabolized	Compound NOT metabolized	Compound NOT metabolized	Compound NOT metabolized	Compound NOT metabolized	Compound NOT metabolized	CC[C@@]1(O)C(=O)OCc2c1cc1n(c2=O)Cc2cc3c(CN(C)C)c(O)ccc3nc2-1 [TOPOTECAN]
Compound NOT metabolized	Compound NOT metabolized	Compound NOT metabolized	Compound NOT metabolized	Compound NOT metabolized	Compound NOT metabolized	Compound NOT metabolized	Compound NOT metabolized	Compound NOT metabolized	Compound NOT metabolized	Compound NOT metabolized	Compound NOT metabolized	Compound NOT metabolized	Compound NOT metabolized	Compound NOT metabolized	Compound NOT metabolized	Compound NOT metabolized	Compound NOT metabolized	Compound NOT metabolized	Compound NOT metabolized	COc1cc(C(=O)NCc2ccc(OCCN(C)C)cc2)cc(OC)c1OC [TRIMETHOBENZAMIDE]

SMILES	Bacterial Biotransformation [1]	Bacterial Biotransformation [2]	Bacterial Biotransformation [3]	Bacterial Biotransformation [4]	Bacterial Biotransformation [5]	Bacterial Biotransformation [6]	Bacterial Biotransformation [7]	Bacterial Biotransformation [8]	Bacterial Biotransformation [9]	Bacterial Biotransformation [10]	Bacterial Biotransformation [11]	Bacterial Biotransformation [12]	Bacterial Biotransformation [13]	Bacterial Biotransformation [14]	Bacterial Biotransformation [15]	Bacterial Biotransformation [16]	Bacterial Biotransformation [17]	Bacterial Biotransformation [18]	Bacterial Biotransformation [19]	Bacterial Biotransformation [20]
COc1ccc(C(CN(C)C)C2(O)CCCCC2)cc1 (stereo not given) [VENLAFAXINE]	Compound NOT metabolized	Compound NOT metabolized	Compound NOT metabolized	Compound NOT metabolized	Compound NOT metabolized	Compound NOT metabolized	Compound NOT metabolized	Compound NOT metabolized	Compound NOT metabolized	Compound NOT metabolized	Compound NOT metabolized	Compound NOT metabolized	Compound NOT metabolized	Compound metabolized	Compound NOT metabolized	Compound NOT metabolized	Compound metabolized	Compound metabolized	Compound NOT metabolized	Compound NOT metabolized
